Reference: US5191093A, “Process for preparing crystalline calcium pseudomonate” (Beecham Group p.l.c., priority 1990, dated 1993)
Structures can show the parent of a compound that is named as a salt. Where two headings read alike, the source gives them in different places.

Experiments:
[1] = format: physicochemical
From the text: |Thermal stability data: for crystalline calcium |pseudomate dihydrate, amorphous calcium pseudomonate |Percentage |Initial |Potency |after |Storage ** | ** Expressed as percentage of initial purity.

[2] = Water solubility; format: physicochemical; conditions: amorphous form

| SMILES | thermal stability (in words) [1] | Percentage Initial Potency after Storage ([1]; 192 h) [%] | Percentage Initial Potency after Storage ([1]; 240 h) [%] | water solubility (in words) [2] |
| --- | --- | --- | --- | --- |
| CC(=CC(=O)OCCCCCCCCC(=O)O)CC1OCC(CC2OC2C(C)C(C)O)C(O)C1O (stereo not shown) [Anhydrous Amorphous Calcium Salt, Amorphous Anhydrous Calcium Pseudomonate A] | poor thermal stability | 29 | 83.3 | sparingly water soluble |
| C/C(=C\C(=O)OCCCCCCCCC(=O)O)C[C@@H]1OC[C@H](C[C@@H]2O[C@H]2[C@@H](C)[C@H](C)O)[C@@H](O)[C@H]1O [Pseudomonic Acid, Pseudomonic acid] | – | 0 | 77.9 | – |
| CC(=CC(=O)OCCCCCCCCC(=O)O)CC1OCC(CC2OC2C(C)C(C)O)C(O)C1O (stereo not shown) [crystalline calcium pseudomonate, calcium pseudomonate] | outstandingly good thermal stability | – | – | – |
